Holding throughout (type): cell-based
Data set [1] relates to Bovine LOX (lysyl oxidase) gene. In words: RT-PCR analysis of LOX mRNA level after siRNA transfection. The conditions noted are these: 20 nM siRNA, bovine stromal cells, 24 hours after transfection, n=2. As for the experimental part: The Bovine LOX (lysyl oxidase) gene (Gene ID: 280841) was knockdown using siRNA. 20,000 bovine stromal cells/cm^2 were transfected with 20 nM of siRNA sequence against LOX (5′[…]3′; SEQ ID NO:1) or a scramble sequence (5′[…]3′; SEQ ID NO:2) as control, using Dharmacon DharmaFECT 1 transfection reagent. 24 hours after transfection the cells were lysed for RNA extraction. The RNA was reverse transcribed to cDNA and 5 ng/μl were subjected to RT-PCR with the following primers: […]

The subject of data set [2] is bovine embryonic fibroblasts. Kind of data set: Secreted soluble collagen in growth medium (QuickZyme soluble collagen assay, Sirius Red). As for the experimental part:
(§1) 35,000 bovine embryonic fibroblast cells/cm^2 were seeded in standard medium. 24 hours later the medium was changed to basal medium and the soluble collagen was measured on day 6 or 7. Likewise, 20,000 stromal cells/cm^2 were seeded in basal medium. 24 hours later the cells were transfected with siRNA targeted to LOX or a scramble sequence as a control. After 24 hours the medium was changed to fresh basal medium. The soluble collagen levels were measured daily from day 3 until day 7.
(§2) Secreted soluble collagen was measured using QuickZyme soluble collagen assay which is based on binding of the dye Sirius Red to collagen. Following binding of the dye, the collagen-dye complex precipitates, resulting in a colored pellet. The pellet is re-suspended in an alkaline solution and the absorbance is measured in a plate reader.
• 1. Conditioned culture medium is collected and centrifuged for 10 minutes at 1,500 g (at 4° C.) to remove cell debris. • 2. The supernatant is diluted in a dilution buffer placed in the assay microplate (V-shaped plate). • 3. The collagen standard solution is diluted in serial dilutions in the dilution buffer and placed in the assay microplate (V-shaped plate). • 4. Sirius red dye is added to the samples and to the standards and mixed. • 5. The plate is centrifuged for 60 minutes at 3000×g at 4° C. to precipitate the pellet. • 6. The pellets are washed and resuspended.
(§3) The resuspended colored solution is transferred to the reading microplate (flat bottom) and read at 540 nm.
35,000 bovine embryonic fibroblast cells/cm^2 were expanded in standard medium (DMEM+10% Fetal Bovine Serum+1% penicillin\streptomycin). 24 hours after seeding their medium was changed to basal medium with 50 μM GM6001.
(§4) 35,000 bovine embryonic fibroblast cells/cm^2 were seeded in standard medium (DMEM+10% Fetal Bovine Serum+1% penicillin\streptomycin). 24 hours after seeding the medium was changed to basal medium with different concentration (0-500 μM) of GM6001, a matrix metalloprotease (MMP) inhibitor which prevents C-terminal cleavage of the procollagen. After 4 days, the medium was collected from the cultures and measured for soluble collagen levels. Insoluble collagen was collected from the culture dish its level was measured.

Data set [3] relates to bovine stromal cells. In words: Secreted soluble collagen in growth medium of stromal cells (QuickZyme soluble collagen assay). As for the experimental part:
as §1, §2
• 1. Conditioned culture medium is collected and centrifuged for 10 minutes at 1,500 g (at 4° C.) to remove cell debris. • 2. The supernatant is diluted in a dilution buffer placed in the assay microplate (V-shaped plate). • 3. The collagen standard solution is diluted in serial dilutions in the dilution buffer and placed in the assay microplate (V-shaped plate). • 4. Sirius red dye is added to the samples and to the standards and mixed. • 5. […]
as §3

Data set [4] relates to bovine embryonic fibroblasts. In words: Insoluble collagen from culture dish (Total Collagen Assay kit, hydroxyproline). To be noted: different concentrations of GM6001 (0-500 μM in text, 0-200 μM in legend), 4 days. Here is the method:
24 hours after seeding the medium was changed to basal medium with different concentration (0-500 μM) of GM6001, a matrix metalloprotease (MMP) inhibitor which prevents C-terminal cleavage of the procollagen.
• 1. Wash the cells once with PBS.
as §4

Entries after “also recorded” stand apart in the source; their conditions may differ.

Regarding “5′GCUGAUAACCAGACGGCACUU3′ (listed as RNA, chemistry not given here) [siRNA sequence against LOX]”, in data set [1], the “reduction of LOX expression (mRNA) relative to scramble control” value was 80%.
`CNC(=O)[C@H](Cc1c[nH]c2ccccc12)NC(=O)[C@@H](CC(=O)NO)CC(C)C` [GM6001, Ilomastat]: the “amount of secreted soluble collagen for 10^6 bovine embryonic fibroblasts” value in data set [2] (50 μM GM6001) is given as “about 1 mg”. Besides, the “increase of soluble collagen in the growth medium vs basal medium” value in data set [2] (50 μM GM6001, 72 hours) is listed as “more than 2 folds”. Also, the “amount of soluble collagen in the growth medium” value in data set [2] (Basal medium + 50 μM GM6001, 72 hours, N=6, basal medium alone 375) came out at 825 μg/10^6 cells. Besides, the “secreted soluble collagen in the growth medium (in words)” value in data set [2] (basal medium supplemented with GM6001, bovine embryonic fibroblasts) was “enhanced”; in data set [3] (basal medium supplemented with GM6001, bovine stromal cells), “enhanced”. Besides, the “maximum soluble collagen level” value in data set [2] (basal medium with 50 μM GM6001, measured daily, maximum on the 7th day) is on record as roughly 900 μg\10^6 cells. In addition, the “soluble collagen level with increasing GM6001 concentration” value in data set [2] (different concentrations of GM6001, 4 days, increase up to about 50 μM) is listed as “enriches; also recorded: increased”. The “soluble collagen levels in the growth medium, LOX silencing combined with GM6001” value in data set [3] (LOX siRNA-treated bovine stromal cells, basal medium with 50 μM GM6001) is “increased; also recorded: enhanced”. The “insoluble collagen level with increasing GM6001 concentration” value in data set [4] is listed as “decrease; also recorded: decreasing”.

The record behind these values is patent publication US20230312687A1, “CELL-FREE ANIMAL COLLAGEN, METHODS OF PRODUCTION AND USES THEREOF” (ALEPH FARMS LTD., priority 2020, published 2023).
